ChEMBL document CHEMBL5365408, “Small molecule inhibitors of PCSK9. SAR investigations of head and amine groups” (Bioorg Med Chem Lett, 2023)

Experiments:
[1] = Half life in Sprague-Dawley rat at 1 mg/kg, iv; assay type: ADME, organism-based; details: in vivo
[2] = Toxicity in rat assessed as reduction in B cells in peripheral blood at 150 mg/kg, po measured for 14 days; assay type: organism-based; details: in vivo, 336 h, time 14 day
CYP1A2 = biological target: T1, CYP1A2 (Homo sapiens, UniProt P05177); assay: Inhibition of CYP1A2 (unknown origin) at 3 uM relative to control; assay type: ADME
T1 sequence (P05177 whole entry): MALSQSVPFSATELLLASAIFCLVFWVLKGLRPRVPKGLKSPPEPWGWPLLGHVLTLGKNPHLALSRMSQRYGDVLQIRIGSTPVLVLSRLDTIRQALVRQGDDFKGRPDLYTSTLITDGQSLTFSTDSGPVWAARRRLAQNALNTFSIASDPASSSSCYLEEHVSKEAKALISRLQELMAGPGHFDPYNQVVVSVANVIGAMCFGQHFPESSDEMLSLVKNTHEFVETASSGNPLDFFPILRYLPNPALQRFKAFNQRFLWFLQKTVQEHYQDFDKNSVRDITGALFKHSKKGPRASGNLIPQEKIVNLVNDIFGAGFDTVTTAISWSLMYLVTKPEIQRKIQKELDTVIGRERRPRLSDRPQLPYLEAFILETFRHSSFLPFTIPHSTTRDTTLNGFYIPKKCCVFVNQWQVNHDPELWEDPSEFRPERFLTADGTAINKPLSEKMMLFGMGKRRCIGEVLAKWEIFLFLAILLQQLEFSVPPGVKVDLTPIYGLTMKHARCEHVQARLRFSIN

[3] = Cmax in Sprague-Dawley rat at 1 mg/kg, iv; assay type: ADME, organism-based; set-up: dose 1 mg/kg, route iv; details: in vivo
[4] = Cytotoxicity against human CD34-positive cell assessed as reduction in cell growth by celltiter-glo assay; assay type: toxicity, cell-based; details: human CD34-positive cells
CYP3A4 = CYP3A4 (Homo sapiens, UniProt P08684); assay: Inhibition of CYP3A4 (unknown origin) at 3 uM relative to control; assay type: ADME
[5] = Toxicity in rat assessed as reduction in T helper cells in peripheral blood at 150 mg/kg, po measured for 14 days; assay type: organism-based, T-cell; details: in vivo, 336 h, time 14 day
[6] = Cytotoxicity against rat Bone marrow cell assessed as inhibition of cell growth with puromycin as high potent effect standard by celltiter-glo assay; assay type: toxicity, cell-based; details: rat bone marrow cells
[7] = Cytotoxicity against rat Bone marrow cell assessed as inhibition of cell growth with (R)-4-(3H-[1,2,3]triazolo[4,5-b]pyridin-3-yl)-N-(3-chloropyridin-2-yl)-N-(piperidin-3-yl) benzamide as high potent effect standard by celltiter-glo assay; assay type: toxicity, cell-based; details: rat, rat bone marrow cells
[8] = Unbound fraction in mouse plasma by equilibrium dialysis analysis; assay type: ADME, cell-free
[9] = Clearance in Sprague-Dawley rat at 1 mg/kg, iv; assay type: ADME, organism-based; details: in vivo
[10] = Unbound fraction in human plasma by equilibrium dialysis analysis; assay type: ADME, cell-free
[11] = Cmax in rat at 25 mg/kg, po; assay type: ADME, organism-based; set-up: dose 25 mg/kg, route po; details: in vivo
CYP2D6 = CYP2D6 (Homo sapiens, UniProt P10635); assay: Inhibition of CYP2D6 (unknown origin) at 3 uM relative to control; assay type: ADME
[12] = Unbound fraction in rat plasma by equilibrium dialysis analysis; assay type: ADME, cell-free
[13] = Toxicity in rat assessed as mortality at 25 to 400 mg/kg, po measured for 14 days; assay type: organism-based; details: in vivo, 336 h, dose 25-400 mg/kg, time 14 day
[14] = Lipophilicity, log D of the compound by shake flask method; assay type: physicochemical; details: octanol/water
[15] = Volume of distribution at steady state in Sprague-Dawley rat at 1 mg/kg, iv; assay type: ADME, organism-based; details: in vivo, read-out: Vdss
[16] = Apparent permeability across apical to basolateral side in MDCK-MDR1 cells; assay type: ADME, cell-based, Canis lupus familiaris; details: dog, read-out: permeability
[17] = Apparent permeability across basolateral to apical side in MDCK-MDR1 cells; assay type: ADME, cell-based, Canis lupus familiaris; details: dog, read-out: permeability
[18] = Toxicity in rat assessed as reduction in T cells in peripheral blood at 150 mg/kg, po measured for 14 days; assay type: organism-based, T-cell; details: in vivo, 336 h, time 14 day
CYP2C9 = CYP2C9 (Homo sapiens, UniProt P11712); assay: Inhibition of CYP2C9 (unknown origin) at 3 uM relative to control; assay type: ADME
Mus musculus = assay: Downregulation of PCSK9 level in po dosed mouse; assay type: functional, organism-based; details: dose 10-300 mg/kg
[19] = biological target: Voltage-gated inwardly rectifying potassium channel KCNH2 (Homo sapiens, UniProt Q12809); assay: Inhibition of hERG by patch clamp assay; assay type: toxicity
[20] = Toxicity in rat assessed as reduction in T cytotoxic cells in peripheral blood at 150 mg/kg, po measured for 14 days; assay type: organism-based, T-cell; details: in vivo, 336 h, time 14 day
[21] = Selectivity index, ratio of IC50 for cytotoxicity against rat Bone marrow cell assessed as inhibition of cell growth by celltiter-glo assay to IC50 for inhibition of full length human PCSK9 expressed in human Huh-7 cells by ELISA analysis
[22] = Oral bioavailability in Sprague-Dawley rat at 5 mg/kg; assay type: ADME, organism-based; details: in vivo
[23] = Apparent permeability of compound in MDCK-II cells; assay type: ADME, cell-based, Canis lupus familiaris; details: dog, read-out: permeability
[24] = biological target: Proprotein convertase subtilisin/kexin type 9 (Homo sapiens, UniProt Q8NBP7); assay: Inhibition of full length human PCSK9 expressed in human Huh-7 cells by ELISA analysis; assay type: cell-based
Proprotein convertase subtilisin/kexin type 9, sequence (Q8NBP7 31-152 limits assumed): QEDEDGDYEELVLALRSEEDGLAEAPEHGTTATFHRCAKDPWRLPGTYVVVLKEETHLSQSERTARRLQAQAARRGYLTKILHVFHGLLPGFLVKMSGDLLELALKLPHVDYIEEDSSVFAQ
Proprotein convertase subtilisin/kexin type 9, sequence (Q8NBP7 153-692 limits assumed): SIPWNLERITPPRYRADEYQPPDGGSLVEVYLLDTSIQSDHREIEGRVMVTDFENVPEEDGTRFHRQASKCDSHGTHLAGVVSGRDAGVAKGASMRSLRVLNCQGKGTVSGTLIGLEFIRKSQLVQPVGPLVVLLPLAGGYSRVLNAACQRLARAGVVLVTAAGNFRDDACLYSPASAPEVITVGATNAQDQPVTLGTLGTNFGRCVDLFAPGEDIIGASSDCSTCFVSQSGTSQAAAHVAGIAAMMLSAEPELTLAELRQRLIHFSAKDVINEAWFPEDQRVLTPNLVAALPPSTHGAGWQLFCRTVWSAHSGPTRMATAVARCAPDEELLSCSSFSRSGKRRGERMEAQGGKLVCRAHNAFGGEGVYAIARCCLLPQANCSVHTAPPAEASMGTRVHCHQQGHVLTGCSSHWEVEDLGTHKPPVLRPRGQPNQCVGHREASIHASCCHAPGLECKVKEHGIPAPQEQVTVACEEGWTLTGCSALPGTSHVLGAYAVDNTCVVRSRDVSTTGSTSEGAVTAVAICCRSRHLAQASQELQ

CYP2C9, sequence (P11712 whole entry): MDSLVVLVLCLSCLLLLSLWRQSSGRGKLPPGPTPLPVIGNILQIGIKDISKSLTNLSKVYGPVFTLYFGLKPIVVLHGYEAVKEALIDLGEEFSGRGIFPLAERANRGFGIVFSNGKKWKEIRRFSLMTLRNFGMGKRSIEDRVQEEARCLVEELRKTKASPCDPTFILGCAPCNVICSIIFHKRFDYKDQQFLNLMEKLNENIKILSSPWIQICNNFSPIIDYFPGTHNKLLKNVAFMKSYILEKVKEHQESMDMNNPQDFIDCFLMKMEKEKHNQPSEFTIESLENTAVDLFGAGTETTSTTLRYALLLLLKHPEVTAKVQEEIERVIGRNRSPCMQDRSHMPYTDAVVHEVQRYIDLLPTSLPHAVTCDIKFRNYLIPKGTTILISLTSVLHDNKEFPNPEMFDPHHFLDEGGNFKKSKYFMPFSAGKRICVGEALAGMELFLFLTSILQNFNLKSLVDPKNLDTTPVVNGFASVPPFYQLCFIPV
CYP2D6, sequence (P10635 whole entry): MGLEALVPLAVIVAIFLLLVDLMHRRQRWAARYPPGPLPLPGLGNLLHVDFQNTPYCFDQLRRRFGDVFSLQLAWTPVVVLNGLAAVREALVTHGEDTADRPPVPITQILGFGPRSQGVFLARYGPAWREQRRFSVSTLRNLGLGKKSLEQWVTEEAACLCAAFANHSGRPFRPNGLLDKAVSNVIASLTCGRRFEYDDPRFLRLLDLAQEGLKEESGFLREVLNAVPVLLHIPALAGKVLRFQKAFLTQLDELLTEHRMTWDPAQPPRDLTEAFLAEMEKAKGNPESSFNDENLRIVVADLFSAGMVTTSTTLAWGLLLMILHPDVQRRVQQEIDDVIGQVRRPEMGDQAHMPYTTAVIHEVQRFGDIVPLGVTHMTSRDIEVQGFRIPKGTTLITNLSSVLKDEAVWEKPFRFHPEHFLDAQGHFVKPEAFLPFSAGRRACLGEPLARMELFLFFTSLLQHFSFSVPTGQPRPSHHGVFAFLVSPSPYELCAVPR
Voltage-gated inwardly rectifying potassium channel KCNH2, sequence (Q12809 whole entry): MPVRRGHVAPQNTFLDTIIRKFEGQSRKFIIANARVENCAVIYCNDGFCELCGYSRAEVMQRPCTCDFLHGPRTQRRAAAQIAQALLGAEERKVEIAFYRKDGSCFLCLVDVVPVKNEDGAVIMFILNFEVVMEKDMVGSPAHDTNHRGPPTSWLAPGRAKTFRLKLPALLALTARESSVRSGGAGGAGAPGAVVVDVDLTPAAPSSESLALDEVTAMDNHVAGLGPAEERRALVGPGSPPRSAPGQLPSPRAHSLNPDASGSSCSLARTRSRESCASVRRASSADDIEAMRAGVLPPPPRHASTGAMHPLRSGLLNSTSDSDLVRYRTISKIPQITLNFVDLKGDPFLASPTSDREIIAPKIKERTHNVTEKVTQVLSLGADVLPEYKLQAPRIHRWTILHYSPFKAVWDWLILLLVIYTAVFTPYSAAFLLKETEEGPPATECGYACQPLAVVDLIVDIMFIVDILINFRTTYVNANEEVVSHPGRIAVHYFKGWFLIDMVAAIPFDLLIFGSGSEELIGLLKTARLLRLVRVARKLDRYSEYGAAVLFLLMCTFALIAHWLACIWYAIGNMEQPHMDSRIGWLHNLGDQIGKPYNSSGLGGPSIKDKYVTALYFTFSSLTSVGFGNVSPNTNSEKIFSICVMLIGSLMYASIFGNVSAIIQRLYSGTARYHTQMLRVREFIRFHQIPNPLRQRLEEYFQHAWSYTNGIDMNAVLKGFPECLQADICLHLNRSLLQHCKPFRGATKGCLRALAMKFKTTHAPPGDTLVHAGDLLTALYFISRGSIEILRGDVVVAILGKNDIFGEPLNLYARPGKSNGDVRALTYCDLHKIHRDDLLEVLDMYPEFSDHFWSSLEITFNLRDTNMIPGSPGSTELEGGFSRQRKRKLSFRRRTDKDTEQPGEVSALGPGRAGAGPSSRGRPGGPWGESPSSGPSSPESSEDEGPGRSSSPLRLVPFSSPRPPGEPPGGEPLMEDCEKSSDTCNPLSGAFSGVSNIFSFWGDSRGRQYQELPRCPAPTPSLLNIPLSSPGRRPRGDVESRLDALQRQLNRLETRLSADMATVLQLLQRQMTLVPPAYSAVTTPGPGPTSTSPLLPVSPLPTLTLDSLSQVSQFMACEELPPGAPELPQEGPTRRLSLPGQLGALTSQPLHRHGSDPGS
CYP3A4, sequence (P08684 whole entry): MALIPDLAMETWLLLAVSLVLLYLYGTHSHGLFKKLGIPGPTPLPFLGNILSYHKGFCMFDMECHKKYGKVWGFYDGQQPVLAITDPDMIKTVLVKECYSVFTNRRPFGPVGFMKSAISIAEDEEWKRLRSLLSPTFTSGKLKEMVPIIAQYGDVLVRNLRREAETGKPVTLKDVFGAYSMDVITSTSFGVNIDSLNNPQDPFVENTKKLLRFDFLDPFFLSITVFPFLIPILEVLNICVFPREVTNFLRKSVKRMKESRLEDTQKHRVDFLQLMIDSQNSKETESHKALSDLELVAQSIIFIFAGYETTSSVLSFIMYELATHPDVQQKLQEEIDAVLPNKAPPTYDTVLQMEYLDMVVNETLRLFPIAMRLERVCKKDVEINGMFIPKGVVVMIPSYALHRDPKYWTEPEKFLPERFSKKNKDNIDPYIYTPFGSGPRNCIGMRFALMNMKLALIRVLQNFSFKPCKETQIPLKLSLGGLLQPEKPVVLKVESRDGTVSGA

For `Cc1cccnc1N(C(=O)c1ccc(-c2cnn3cccnc23)cc1)[C@@H]1CCCNC1`, the half-life [1] was 1.7 h, the Activity [2] was “Non-Toxic” and the inhibition at 3 µM (CYP1A2) was < 5%. The Cmax [3] was 121 ng/mL, the IC50 [4] was 13.6 µM and the inhibition at 3 µM (CYP3A4) was < 5%. For the same compound, the Activity [5] was “Non-Toxic”, the IC50 [6] was 16.8 µM and the IC50 [7] was 18.2 µM. It also gave a Fu [8] of 0.37%, a clearance [9] of 43.6 mL/min/kg and a Fu [10] of 0.54%. The Cmax [11] was 255 ng/mL, the inhibition at 3 µM (CYP2D6) was < 5% and the Fu [12] was 0.32%. For the same compound, the Activity [13] was “Non-Toxic”, the logD [14] was 0.6 and the Vd [15] was 3 L/kg. For the same compound, the Papp A→B [16] was 0.4 ×10⁻⁶ cm/s, the Papp B→A [17] was 15.7 ×10⁻⁶ cm/s and the Activity [18] was “Non-Toxic”. For the same compound, the inhibition at 3 µM (CYP2C9) was < 5%, the Activity (Mus musculus) was “Dose-Dependent Effect” and the IC50 [19] was 56.5 µM. For the same compound, the Activity [20] was “Non-Toxic”, the “Ratio IC50” value [21] was 7.47 and the bioavailability [22] was 20%. The Papp [23] was 7 ×10⁻⁶ cm/s and the IC50 [24] was 2.25 µM.
